Measurements from ChEMBL document CHEMBL1151339, “Antitumor agents from bohemic acid complex, III. The isolation of marcellomycin, musettamycin, rudolphomycin, mimimycin, collinemycin, alcindoromycin, and bohemamine” (J Nat Prod, 1980).
Values after ≈ are worked out from the molar mass of the structure shown.

What was measured:
[1] = test system: Mus musculus; experiment: Toxicity in BDF1 mouse xenografted with mouse L1210 cells assessed as survival at 6.4 mg/kg, ip after 5 days; assay type: organism-based; parameters: dose 6.4 mg/kg, route intraperitoneal; conditions: in vivo, 120 h
[2] = test system: Mus musculus; experiment: Toxicity in BDF1 mouse xenografted with mouse L1210 cells assessed as survival at 3.2 mg/kg, ip after 5 days; assay type: organism-based; parameters: dose 3.2 mg/kg, route intraperitoneal; conditions: in vivo, 120 h
[3] = test system: Mus musculus; experiment: Toxicity in BDF1 mouse xenografted with mouse L1210 cells assessed as survival at 1.6 mg/kg, ip after 5 days; assay type: organism-based; parameters: dose 1.6 mg/kg, route intraperitoneal; conditions: in vivo, 120 h
[4] = test system: Pseudomonas aeruginosa; experiment: Antibacterial activity against Pseudomonas aeruginosa A-9843A by 2-fold tube dilution method; assay type: functional
[5] = test system: Enterococcus faecalis; experiment: Antibacterial activity against Streptococcus faecalis A20688 by 2-fold tube dilution method; assay type: functional
[6] = test system: Staphylococcus; experiment: Antibacterial activity against penicillin resistant Staphylococcus A-9606 by 2-fold tube dilution method; assay type: functional
[7] = test system: Streptococcus pneumoniae; experiment: Antibacterial activity against Streptococcus pneumoniae A-9585 by 2-fold tube dilution method; assay type: functional
[8] = test system: Streptococcus pyogenes; experiment: Antibacterial activity against Streptococcus pyogenes A-9604 by 2-fold tube dilution method; assay type: functional
[9] = test system: Staphylococcus aureus; experiment: Antibacterial activity against Staphylococcus aureus A-9497 by 2-fold tube dilution method; assay type: functional
[10] = test system: Escherichia coli; experiment: Antibacterial activity against Escherichia coli A15119 by 2-fold tube dilution method; assay type: functional
[11] = test system: Escherichia coli; experiment: Antibacterial activity against Escherichia coli A20341-1 by 2-fold tube dilution method; assay type: functional
[12] = test system: Klebsiella pneumoniae; experiment: Antibacterial activity against Klebsiella pneumoniae A15130 by 2-fold tube dilution method; assay type: functional
[13] = test system: Proteus mirabilis; experiment: Antibacterial activity against Proteus mirabilis A-9900 by 2-fold tube dilution method; assay type: functional
[14] = test system: Proteus vulgaris; experiment: Antibacterial activity against Proteus vulgaris A21559 by 2-fold tube dilution method; assay type: functional
[15] = test system: Serratia marcescens; experiment: Antibacterial activity against Serratia marcescens A20019 by 2-fold tube dilution method; assay type: functional
[16] = test system: Enterobacter cloacae; experiment: Antibacterial activity against Enterobacter cloacae A-9659 by 2-fold tube dilution method; assay type: functional
[17] = test system: Candida albicans; experiment: Antifungal activity against Candida albicans A-9540 by 2-fold tube dilution method; assay type: functional
[18] = test system: Candida albicans; experiment: Antifungal activity against Candida albicans A15049 by 2-fold tube dilution method; assay type: functional
[19] = test system: Candida albicans; experiment: Antifungal activity against Candida albicans A15050 by 2-fold tube dilution method; assay type: functional
[20] = test system: Candida tropicalis; experiment: Antifungal activity against Candida tropicalis A15051 by 2-fold tube dilution method; assay type: functional
[21] = test system: Pichia kudriavzevii; experiment: Antifungal activity against Candida krusei A15052 by 2-fold tube dilution method; assay type: functional
[22] = test system: Trichophyton mentagrophytes; experiment: Antifungal activity against Trichophyton mentagrophytes A-9870 by 2-fold tube dilution method; assay type: functional
[23] = test system: Microsporum canis; experiment: Antifungal activity against Microsporum canis A-9872 by 2-fold tube dilution method; assay type: functional
[24] = test system: L1210; experiment: Antitumor activity against mouse L1210 cells xenografted in BDF1 mouse assessed as median survival time at 12.8 mg/kg, ip; assay type: functional; conditions: route intraperitoneal
[25] = test system: L1210; experiment: Antitumor activity against mouse L1210 cells xenografted in BDF1 mouse assessed as median survival time at 6.4 mg/kg, ip; assay type: functional; conditions: route intraperitoneal
[26] = test system: L1210; experiment: Antitumor activity against mouse L1210 cells xenografted in BDF1 mouse assessed as median survival time at 3.2 mg/kg, ip; assay type: functional; conditions: route intraperitoneal
[27] = test system: L1210; experiment: Antitumor activity against mouse L1210 cells xenografted in BDF1 mouse assessed as median survival time at 1.6 mg/kg, ip; assay type: functional; conditions: route intraperitoneal
[28] = test system: L1210; experiment: Antitumor activity against mouse L1210 cells xenografted in BDF1 mouse assessed as median survival time at 51.2 mg/kg, ip; assay type: functional; conditions: route intraperitoneal
[29] = test system: L1210; experiment: Antitumor activity against mouse L1210 cells xenografted in BDF1 mouse assessed as median survival time at 25.6 mg/kg, ip; assay type: functional; conditions: route intraperitoneal
[30] = test system: L1210; experiment: Antitumor activity against mouse L1210 cells xenografted in BDF1 mouse at 12.8 mg/kg, ip relative to control; assay type: functional; conditions: route intraperitoneal
[31] = test system: L1210; experiment: Antitumor activity against mouse L1210 cells xenografted in BDF1 mouse at 6.4 mg/kg, ip relative to control; assay type: functional; conditions: route intraperitoneal
[32] = test system: L1210; experiment: Antitumor activity against mouse L1210 cells xenografted in BDF1 mouse at 3.2 mg/kg, ip relative to control; assay type: functional; conditions: route intraperitoneal
[33] = test system: L1210; experiment: Antitumor activity against mouse L1210 cells xenografted in BDF1 mouse at 1.6 mg/kg, ip relative to control; assay type: functional; conditions: route intraperitoneal
[34] = test system: L1210; experiment: Antitumor activity against mouse L1210 cells xenografted in BDF1 mouse at 51.2 mg/kg, ip relative to control; assay type: functional; conditions: route intraperitoneal
[35] = test system: L1210; experiment: Antitumor activity against mouse L1210 cells xenografted in BDF1 mouse at 25.6 mg/kg, ip relative to control; assay type: functional; conditions: route intraperitoneal
[36] = test system: L1210; experiment: Antitumor activity against mouse L1210 cells xenografted in BDF1 mouse assessed as change in tumor average weight at 12.8 mg/kg, ip; assay type: functional; conditions: route intraperitoneal
[37] = test system: L1210; experiment: Antitumor activity against mouse L1210 cells xenografted in BDF1 mouse assessed as change in tumor average weight at 6.4 mg/kg, ip; assay type: functional; conditions: route intraperitoneal
[38] = test system: L1210; experiment: Antitumor activity against mouse L1210 cells xenografted in BDF1 mouse assessed as change in tumor average weight at 3.2 mg/kg, ip; assay type: functional; conditions: route intraperitoneal
[39] = test system: L1210; experiment: Antitumor activity against mouse L1210 cells xenografted in BDF1 mouse assessed as change in tumor average weight at 1.6 mg/kg, ip; assay type: functional; conditions: route intraperitoneal
[40] = test system: L1210; experiment: Antitumor activity against mouse L1210 cells xenografted in BDF1 mouse assessed as change in tumor average weight at 51.2 mg/kg, ip; assay type: functional; conditions: route intraperitoneal
[41] = test system: L1210; experiment: Antitumor activity against mouse L1210 cells xenografted in BDF1 mouse assessed as change in tumor average weight at 25.6 mg/kg, ip; assay type: functional; conditions: route intraperitoneal
[42] = test system: Mus musculus; experiment: Toxicity in BDF1 mouse xenografted with mouse L1210 cells assessed as survival at 12.8 mg/kg, ip after 5 days; assay type: organism-based; parameters: dose 12.8 mg/kg, route intraperitoneal; conditions: in vivo, 120 h
[43] = test system: Mus musculus; experiment: Toxicity in BDF1 mouse xenografted with mouse L1210 cells assessed as survival at 51.2 mg/kg, ip after 5 days; assay type: organism-based; parameters: dose 51.2 mg/kg, route intraperitoneal; conditions: in vivo, 120 h
[44] = test system: Mus musculus; experiment: Toxicity in BDF1 mouse xenografted with mouse L1210 cells assessed as survival at 25.6 mg/kg, ip after 5 days; assay type: organism-based; parameters: dose 25.6 mg/kg, route intraperitoneal; conditions: in vivo, 120 h

SMILES: CC[C@@]1(O)C[C@H](O[C@H]2C[C@H](N(C)C)[C@H](O[C@H]3C[C@H](O)[C@H](O[C@@H]4C[C@H](O)[C@H](O)[C@H](C)O4)[C@H](C)O3)[C@@H](C)O2)c2c(cc3c(c2O)C(=O)c2c(O)ccc(O)c2C3=O)[C@@H]1C(=O)OC [MIMIMYCIN]
- Activity [1]: Non-toxic
- Activity [2]: Non-toxic
- Activity [3]: Non-toxic
- MIC [4]: > 125 µg/mL
- MIC [5]: 4 µg/mL (≈ 4.73 µM)
- MIC [6]: 63 µg/mL (≈ 74.5 µM)
- MIC [7]: 1 µg/mL (≈ 1.18 µM)
- MIC [8]: 2 µg/mL (≈ 2.36 µM)
- MIC [9]: 8 µg/mL (≈ 9.46 µM)
- MIC [10]: > 125 µg/mL
- MIC [11]: > 125 µg/mL
- MIC [12]: > 125 µg/mL
- MIC [13]: > 125 µg/mL
- MIC [14]: > 125 µg/mL
- MIC [15]: > 125 µg/mL
- MIC [16]: > 125 µg/mL
- MIC [17]: > 16 µg/mL
- MIC [18]: > 16 µg/mL
- MIC [19]: > 16 µg/mL
- MIC [20]: > 16 µg/mL
- MIC [21]: > 16 µg/mL
- MIC [22]: > 16 µg/mL
- MIC [23]: > 16 µg/mL
- Activity [24]: 8.5 days
- Activity [25]: 9 days
- Activity [26]: 8 days
- Activity [27]: 7.5 days
- Activity [28]: 10 days
- Activity [29]: 8 days
- T/C [30]: 113%
- T/C [31]: 120%
- T/C [32]: 107%
- T/C [33]: 100%
- T/C [34]: 133%
- T/C [35]: 107%
- Activity [36]: -0.3 g
- Activity [37]: -1.3 g
- Activity [38]: 1.3 g
- Activity [39]: 0.5 g
- Activity [40]: -3.2 g
- Activity [41]: 0.1 g
- Activity [42]: Non-toxic

SMILES: CC[C@@]1(O)C[C@H](O[C@H]2C[C@H](N(C)C)[C@H](O[C@H]3C[C@H](O)[C@H](O)[C@@H](C)O3)[C@@H](C)O2)c2c(cc3c(c2O)C(=O)c2c(O)ccc(O)c2C3=O)[C@H]1C(=O)OC [COLLINEMYCIN]
- Activity [1]: Non-toxic
- Activity [2]: Non-toxic
- Activity [3]: Non-toxic
- MIC [4]: > 125 µg/mL
- MIC [5]: 63 µg/mL (≈ 88 µM)
- MIC [6]: 63 µg/mL (≈ 88 µM)
- MIC [7]: 2 µg/mL (≈ 2.79 µM)
- MIC [8]: 8 µg/mL (≈ 11.2 µM)
- MIC [9]: 16 µg/mL (≈ 22.4 µM)
- MIC [10]: > 125 µg/mL
- MIC [11]: > 125 µg/mL
- MIC [12]: > 125 µg/mL
- MIC [13]: > 125 µg/mL
- MIC [14]: > 125 µg/mL
- MIC [15]: > 125 µg/mL
- MIC [16]: > 125 µg/mL
- MIC [17]: > 16 µg/mL
- MIC [18]: > 16 µg/mL
- MIC [19]: > 16 µg/mL
- MIC [20]: > 16 µg/mL
- MIC [21]: > 16 µg/mL
- MIC [22]: > 16 µg/mL
- MIC [23]: > 16 µg/mL
- Activity [24]: 10 days
- Activity [25]: 8 days
- Activity [26]: 8 days
- Activity [27]: 8 days
- Activity [28]: 11 days
- Activity [29]: 11 days
- T/C [30]: 133%
- T/C [31]: 107%
- T/C [32]: 107%
- T/C [33]: 107%
- T/C [34]: 147%
- T/C [35]: 147%
- Activity [36]: -2.3 g
- Activity [37]: -1.2 g
- Activity [38]: 1.3 g
- Activity [39]: -0.3 g
- Activity [40]: -2.5 g
- Activity [41]: -4.2 g
- Activity [42]: Non-toxic

SMILES: CC[C@@]1(O)C[C@H](O[C@H]2C[C@H](NC)[C@H](O[C@H]3C[C@H](O)[C@H](O[C@@H]4C[C@H](O)[C@H](O)[C@H](C)O4)[C@H](C)O3)[C@@H](C)O2)c2c(cc3c(c2O)C(=O)c2c(O)ccc(O)c2C3=O)[C@H]1C(=O)OC [ALCINDOROMYCIN]
- Activity [1]: Non-toxic
- Activity [2]: Non-toxic
- Activity [3]: Non-toxic
- Activity [43]: Non-toxic
- Activity [44]: Non-toxic
- MIC [4]: > 125 µg/mL
- MIC [5]: 8 µg/mL (≈ 9.62 µM)
- MIC [6]: 63 µg/mL (≈ 75.7 µM)
- MIC [7]: 1 µg/mL (≈ 1.2 µM)
- MIC [8]: 2 µg/mL (≈ 2.4 µM)
- MIC [9]: 8 µg/mL (≈ 9.62 µM)
- MIC [10]: > 125 µg/mL
- MIC [11]: > 125 µg/mL
- MIC [12]: > 125 µg/mL
- MIC [13]: > 125 µg/mL
- MIC [14]: > 125 µg/mL
- MIC [15]: > 125 µg/mL
- MIC [16]: > 125 µg/mL
- MIC [17]: > 16 µg/mL
- MIC [18]: > 16 µg/mL
- MIC [19]: > 16 µg/mL
- MIC [20]: > 16 µg/mL
- MIC [21]: > 16 µg/mL
- MIC [22]: > 16 µg/mL
- MIC [23]: > 16 µg/mL
- Activity [24]: 9.5 days
- Activity [25]: 8 days
- Activity [26]: 8.5 days
- Activity [27]: 7 days
- Activity [28]: 11 days
- Activity [29]: 10 days
- T/C [30]: 128%
- T/C [31]: 107%
- T/C [32]: 113%
- T/C [33]: 93%
- T/C [34]: 147%
- T/C [35]: 133%
- Activity [36]: -0.8 g
- Activity [37]: 0.6 g
- Activity [38]: 0.5 g
- Activity [39]: 1.3 g
- Activity [40]: -2.7 g
- Activity [41]: -1.9 g
- Activity [42]: Non-toxic
